# According to publication PMC6018602, “The virulence factor LecB varies in clinical isolates: consequences for ligand binding and drug discovery” (Chemical Science, 2016):
# Several values for one entry are separate records, joined by “and”; a condition that tells them apart may be missing. Identical values can stand only once. Like-named read-outs stand apart in the source and are kept apart here.
# Experiments:
# LecBPA14 [1] = target: T1, LecBPA14 (Pseudomonas aeruginosa, UniProt A0A0H2ZE85); experiment: biochemical; format: binding, P. aeruginosa PA14
# Method: (§1) To quantify the binding affinities of the carbohydrates we adapted the competitive binding assay for LecBPA14 (Fig. S5 ^†) previously described for LecBPAO1.[18]
# (§2) The competitive binding assay based on fluorescence polarization was performed as described previously for PAO1.[18] […] After addition of the reagents, the plate was incubated for 8–22 h at r.t. in a humidity chamber. […] The measured intensities were reduced by buffer values and fluorescence polarization was calculated. The data were analyzed using BMG Labtech MARS software and/or with Graphpad Prism and fitted according to the four parameter variable slope model. […] A minimum of three independent measurements of triplicates each was performed for every ligand.
# LecBPAO1 [2] = target: T2, LecBPAO1 (Pseudomonas aeruginosa, UniProt Q9HYN5); experiment: biochemical; format: binding, P. aeruginosa PAO1
# Method: as §1, §2
# [3] = target: LecB from P. aeruginosa PA14 (Pseudomonas aeruginosa UCBPP-PA14); experiment: dynamic light scattering; 100 μM LecB in TBS/Ca (20 mM Tris, 137 mM NaCl, 2.6 mM KCl, pH 7.4, 1 mM CaCl2), 25 °C, Zetasizer Nano-ZS
# [4] = target: LecB from P. aeruginosa PA14 (Pseudomonas aeruginosa UCBPP-PA14); experiment: crystal structure; native LecB_(PA14), hanging drop vapor diffusion at 19 °C, molecular replacement with the tetramer of PDB 1UZV, 1.70 Å
# LecBPA14 [5] = target: T1, LecBPA14; experiment: biochemical; format: binding, P. aeruginosa PA14; remark: listed apart in the source
# LecBPAO1 [6] = target: T2, LecBPAO1; experiment: biochemical; format: binding, P. aeruginosa PAO1; remark: listed apart in the source
# LecBPAO1 [7] = target: T2, LecBPAO1; conditions: cited from earlier work; for N (LecBPAO1): ITC stoichiometry
# [8] = LecBPAO1 IC50, competitive binding assay, Fig. 3
# [9] = IC50 for LecBPAO1, competitive binding assay
# [10] = individual ITC titrations, Fig. S6, TBS supplemented with 1 mM CaCl2
# [11] = individual ITC titrations, Fig. S6, TBS supplemented with 1 mM CaCl2, protein and ligand concentrations vary
compound,measurement,setting,value
"CO[C@@H]1OC[C@@H](O)[C@@H](O)[C@@H]1O [Compound 6, methyl β-D-arabinoside]",IC50,LecBPA14 [1],1900 ± 400 nM
"CC(=O)NC1C(OC2C(O)C(O)OC(CO)C2O)OC(CO)C(OC2OC(C)C(O)C(O)C2O)C1OC1OC(CO)C(O)C(O)C1OC1OC(C)C(O)C(O)C1O (stereo not shown) [Compound 16, Lewis^b]",IC50,LecBPA14 [1],150 ± 10 nM
same,IC50,LecBPAO1 [2]; [8],690 ± 40 nM
CC(=O)N[C@H]1[C@H](O[C@H]2[C@H](O)[C@@H](NC(C)=O)C(O)O[C@@H]2CO)O[C@H](CO)[C@@H](O[C@@H]2O[C@H](CO[C@H]3O[C@H](CO)[C@@H](O)[C@H](O)[C@@H]3O[C@@H]3O[C@H](CO)[C@@H](O[C@@H]4O[C@H](CO)[C@H](O)[C@H](O[C@@H]5O[C@H](CO)[C@@H](O[C@@H]6O[C@H](CO)[C@H](O)[C@H](O)[C@H]6O[C@@H]6O[C@@H](C)[C@@H](O)[C@@H](O)[C@@H]6O)[C@H](O)[C@H]5NC(C)=O)[C@H]4O)[C@H](O)[C@H]3NC(C)=O)[C@@H](O)[C@H](O[C@H]3O[C@H](CO)[C@@H](O)[C@H](O)[C@@H]3O[C@@H]3O[C@H](CO)[C@@H](O[C@@H]4O[C@H](CO)[C@H](O)[C@H](O[C@@H]5O[C@H](CO)[C@@H](O[C@@H]6O[C@H](CO)[C@H](O)[C@H](O)[C@H]6O[C@@H]6O[C@@H](C)[C@@H](O)[C@@H](O)[C@@H]6O)[C@H](O)[C@H]5NC(C)=O)[C@H]4O)[C@H](O)[C@H]3NC(C)=O)[C@@H]2O)[C@@H]1O (stereo partly shown) [Compound 23],IC50,LecBPA14 [1],35 nM
same,IC50,LecBPAO1 [2]; [9],114 nM
LecB from P. aeruginosa PA14 (natural protein),stoichiometry N,[3],4
same,stoichiometry N,[4],4
"CC(=O)NC1C(OC2C(O)C(O)OC(CO)C2O)OC(CO)C(OC2OC(CO)C(O)C(O)C2OC2OC(C)C(O)C(O)C2O)C1O (stereo not shown) [Compound 15, H type II]",IC50,LecBPA14 [1],180 nM
same,IC50,LecBPAO1 [2]; [9],930 nM
same,N (LecBPA14),"LecBPA14 [5]; ITC stoichiometry, 25 °C",0.98 ± 0.03
same,-TΔS (LecBPA14),"LecBPA14 [5]; ITC, 25 °C",-2.75 ± 0.263 kcal/mol
same,ΔG (LecBPA14),"LecBPA14 [5]; ITC, 25 °C",-9.18 ± 0.22 kcal/mol
same,ΔH (LecBPA14),"LecBPA14 [5]; ITC, 25 °C",-6.43 ± 0.454 kcal/mol
same,Kd,"LecBPA14 [5]; Kd (LecBPA14), ITC, 25 °C",199 nM
same,Kd,LecBPAO1 [6],605 ± 140 nM
same,N (LecBPAO1),"LecBPAO1 [6]; ITC stoichiometry, 25 °C",1.01 ± 0.07
same,-TΔS (LecBPAO1),"LecBPAO1 [6]; ITC, 25 °C",-0.837 ± 0.096 kcal/mol
same,ΔG (LecBPAO1),"LecBPAO1 [6]; ITC, 25 °C",-8.48 ± 0.12 kcal/mol
same,ΔH (LecBPAO1),"LecBPAO1 [6]; ITC, 25 °C",-7.67 ± 0.096 kcal/mol
"CO[C@@H]1O[C@@H](C)[C@@H](O)[C@@H](O)[C@@H]1O [Compound 2, methyl α-L-fucoside]",N (LecBPA14),"LecBPA14 [5]; ITC stoichiometry, 25 °C",0.99 ± 0.04
same,-TΔS (LecBPA14),"LecBPA14 [5]; ITC, 25 °C",-1.5 ± 0.201 kcal/mol
same,ΔH (LecBPA14),"LecBPA14 [5]; ITC, 25 °C",-7.65 ± 0.227 kcal/mol
same,G,LecBPA14 [5]; [10],"-9,15E+03 cal/mol and -9,22E+03 cal/mol and -9,24E+03 cal/mol and -8,96E+03 cal/mol"
same,H,LecBPA14 [5]; [10],-7.957 kcal/mol and -7.593 kcal/mol and -7.612 kcal/mol and -7.414 kcal/mol
same,s,LecBPA14 [5]; [10],"5,45 cal/molK and 5,47 cal/molK and 5,18 cal/molK and 4,01 cal/molK"
same,Ka,LecBPA14 [5]; [11],"3,69E+06 1/M"
same,-TΔS (LecBPAO1),LecBPAO1 [7]; ITC,1.17 kcal/mol
same,ΔH (LecBPAO1),LecBPAO1 [7]; ITC,-9.87 kcal/mol
"CO[C@H]1O[C@H](CO)[C@@H](O)[C@H](O)[C@@H]1O [Compound 5, methyl α-D-mannoside]",-TΔS (LecBPA14),LecBPA14 [5],-3.47 ± 0.0789 kcal/mol
same,G,LecBPA14 [5],"-6,63E+03 cal/mol and -6,52E+03 cal/mol and -6,48E+03 cal/mol"
same,Ka,LecBPA14 [5],"7,18E+04 1/M and 6,20E+04 1/M and 5,54E+04 1/M"
same,N (LecBPA14),LecBPA14 [5],1.03 ± 0.07
same,s,LecBPA14 [5],"11,8 cal/molK and 11,3 cal/molK and 11,7 cal/molK"
same,ΔH (LecBPA14),LecBPA14 [5],-3.08 ± 0.0813 kcal/mol
same,N (LecBPAO1),LecBPAO1 [7],0.94
same,-TΔS (LecBPAO1),LecBPAO1 [7]; ITC,-1.41 kcal/mol
same,ΔH (LecBPAO1),LecBPAO1 [7]; ITC,-4.25 kcal/mol
"C[C@@H]1OC[C@@H](O)[C@H](O)[C@@H]1O [Compound 8, 1-deoxy L-fucose]",IC50,LecBPA14 [1],610 ± 100 nM
"OCC1OC(OC2C(O)OC(CO)C(O)C2O)C(O)C(O)C1O [Compound 10, α-1,2-D-mannosyl D-mannose]",IC50,LecBPA14 [1],26000 ± 5000 nM
same,IC50,LecBPAO1 [2]; [8],85000 ± 2000 nM
"OC[C@H]1OC[C@@H](O)[C@@H](O)[C@@H]1O [Compound 9, 1-deoxy D-mannose]",IC50,LecBPA14 [1],56000 ± 16000 nM
"OC1[C@H](O)COC[C@H]1O [Compound 7, 1-deoxy D-arabinose]",IC50,LecBPA14 [1],6800 ± 1200 nM
"CC(=O)NC1C(OC2C(O)C(O)OC(CO)C2O)OC(CO)C(OC2OC(C)C(O)C(O)C2O)C1OC1OC(CO)C(O)C(O)C1O (stereo not shown) [Compound 12, Lewis^a]",IC50,LecBPA14 [1],78 nM
same,IC50,LecBPAO1 [2]; [9],166 nM
same,IC50,LecBPAO1 [2]; [8],170 ± 10 nM
same,N (LecBPA14),"LecBPA14 [5]; ITC stoichiometry, 25 °C",1.05 ± 0.11
same,-TΔS (LecBPA14),"LecBPA14 [5]; ITC, 25 °C",-0.813 ± 0.509 kcal/mol
same,ΔG (LecBPA14),"LecBPA14 [5]; ITC, 25 °C",-9.78 ± 0.196 kcal/mol
same,ΔH (LecBPA14),"LecBPA14 [5]; ITC, 25 °C",-8.99 ± 0.602 kcal/mol
same,Kd,"LecBPA14 [5]; Kd (LecBPA14), ITC, 25 °C",70 nM
same,Kd,"LecBPA14 [5]; Kd, individual ITC titrations, Fig. S6, TBS supplemented with 1 mM CaCl2",62.1 nM and 96.2 nM and 50.3 nM
same,G,LecBPA14 [5]; [10],"-9,83E+03 cal/mol and -9,57E+03 cal/mol and -9,96E+03 cal/mol"
same,H,LecBPA14 [5]; [10],-8.521 kcal/mol and -8.769 kcal/mol and -9.667 kcal/mol
same,s,LecBPA14 [5]; [10],"4,39 cal/molK and 2,69 cal/molK and 0,969 cal/molK"
same,Ka,LecBPA14 [5]; [11],"1,61E+07 1/M and 1,04E+07 1/M and 1,99E+07 1/M"
same,N (LecBPAO1),LecBPAO1 [7],1.08
same,-TΔS (LecBPAO1),LecBPAO1 [7]; ITC,-0.741 kcal/mol
same,ΔG (LecBPAO1),LecBPAO1 [7]; ITC,-9.11 kcal/mol
same,ΔH (LecBPAO1),LecBPAO1 [7]; ITC,-8.34 kcal/mol
same,Kd,"LecBPAO1 [7]; read-out: Kd (LecBPAO1), ITC",212 nM
"OCC1OC(OC2C(O)C(O)OC(CO)C2O)C(O)C(O)C1O [Compound 11, α-1,3-D-mannosyl D-mannose]",IC50,LecBPA14 [1],26000 ± 6000 nM
same,IC50,LecBPAO1 [2]; [8],63000 ± 3000 nM
"CC(=O)NC1C(OC2C(O)C(O)OC(CO)C2O)OC(CO)C(O)C1OC1OC(CO)C(O)C(O)C1OC1OC(C)C(O)C(O)C1O (stereo not shown) [Compound 14, H type I]",IC50,LecBPA14 [1],910 ± 100 nM
same,IC50,LecBPAO1 [2]; [8],2300 ± 100 nM
